Patent US20250332167A1, “PHARMACEUTICAL USE OF CDK 4/6 INHIBITOR” (priority 2021, published 2025)
Values joined by “and” are separate entries in the source; they are usually repeats but may differ in a detail not shown here. Equal entries are not always repeated.

Experiments:
NCI-H1581 = experiment: Proliferation inhibition, non-small cell lung cancer cell line NCI-H1581; type: cell-based; details: Homo sapiens, NCI-H1581, 72 h
Procedure: (§1) Sixteen non-small cell lung cancer cell lines, including NCI-H1792, NCI-H1703, NCI-H441, SNU-761, NCI-H1975, NCI-H358, NCI-H1838, NCI-H1915, A549, SK-MES-1, NCI-H292, PC-9, NCI-H460, NCI-H23, NCI-H1581, and HLF, were used for the proliferation inhibition assay of the present invention compound. […] The cell detection equipment used was In Cell Analyzer 2200 (GE Healthcare).
(§2) With 60 μM as the initial concentration, ten points were obtained by serial five-fold dilution.
(§3) Each kind of cell in logarithmic growth phase was inoculated with 4000 cells/100 μl/well into a black transparent bottom 96-well plate and cultured overnight at 37° C. The next day, the plate was taken out, and 20 μL of the prepared sample dilutions was added to each well. The plate was then subjected to treatment at 37° C. for 72 hours. After the treatment period of 72 hours, the plate was taken out and 50 μL of neutral formaldehyde fixative (formaldehyde: PBS=1:9, 50 μl/well) was added to each well. The plate was then fixed at room temperature for 10-30 minutes. Subsequently, the wells were washed twice with 1× PBS (100 μl/well) and treated with 0.2% Triton™-X100 for 5-10 minutes to permeabilize the cells. […] The inhibitory rates of each compound at different concentration points were calculated by using the following formula, and IC50 values were obtained through curve fitting using GraphPad Prism 6.0 software.

NCI-H1975 xenograft = experiment: Human non-small cell lung cancer NCI-H1975 xenograft mouse model; type: in vivo, Balb/c nude mice; details: for T/C / TGI / Tumor relative volume (x ± S) / Tumor volume (x ± S): 16 days after administration; for Body weight change: Day 20 of treatment
Text: The formula for calculating tumor volume was: Tumor Volume (mm^3)=½×(a×b^2) (where “a” represents the long diameter and “b” represents the short diameter).
The relative tumor growth rate (T/C) is the percentage value of the relative tumor volume or weight between the treatment group and the control group at a certain time point. The calculation formula is as follows: • T/C(%)=TRTV/CRTV×100% (TRTV: Average RTV of the treatment group; CRTV: Average RTV of the Vehicle group; RTV=Vt/V0, where V0 is the tumor volume of the animal at the time of grouping and Vt is the tumor volume of the animal after treatment).
(T and C are the relative tumor volume (RTV) or weight (TW) of the treatment group and control group at a specific time point, respectively).
NCI-H1975 cells were cultured in RPMI1640 medium containing 10% fetal bovine serum. Log-phase NCI-H1975 cells were collected, suspended in PBS to an appropriate concentration, and used for subcutaneous tumor implantation in Balb/c nude mice. Each female mouse was implanted with 0.1 ml of NCI-H1975 cells subcutaneously. When the average tumor volume reached 171 mm^3, the mice were randomly divided into groups based on tumor size.
The positive control drugs were Palbociclib and Abemaciclib.
Each group consisted of 8 mice, and oral gavage administration was performed once daily for a total of 21 days. Tumor volume and body weight changes were observed regularly, and efficacy evaluation was conducted based on relative tumor proliferation rate (T/C) and relative tumor growth inhibition rate (TGI). The calculation methods for tumor volume, T/C, and TGI are described in Example 3.

A549 = experiment: Proliferation inhibition, non-small cell lung cancer cell line A549; type: cell-based; details: Homo sapiens, A549, 72 h
Procedure: as §1, §2, §3

NCI-H1838 = experiment: Proliferation inhibition, non-small cell lung cancer cell line NCI-H1838; type: cell-based; details: Homo sapiens, NCI-H1838, 72 h
Procedure: as §1, §2, §3

NCI-H292 = experiment: Proliferation inhibition, non-small cell lung cancer cell line NCI-H292; type: cell-based; details: Homo sapiens, NCI-H292, 72 h
Procedure: as §1, §2, §3

SNU-761 = experiment: Proliferation inhibition, non-small cell lung cancer cell line SNU-761; type: cell-based; details: Homo sapiens; SNU-761, 72 h
Procedure: as §1, §2, §3

NCI-H1915 = experiment: Proliferation inhibition, non-small cell lung cancer cell line NCI-H1915; type: cell-based; details: Homo sapiens, NCI-H1915, 72 h
Procedure: as §1, §2, §3

U118MG cells = experiment: Proliferation inhibition of human glioblastoma cells U118MG (DAPI cell count, 72 h); type: cell-based; details: U-118-MG, 72 h treatment
Procedure: Human glioblastoma cell U118MG was purchased from NANJING COBIOER BIOSCIENCES CO., LTD. […] The cell detection equipment used was the In Cell Analyzer 2200 (GE Healthcare).
as §2
Medium for U118 MG is the MEM (low glucose) medium supplemented with 10% FBS, 1% penicillin/streptomycin, 1% sodium pyruvate, and 1% MEM NEAA. U118 MG cells were seeded at a density of 4000 cells/100 μL/well in a 96-well black clear-bottom plate and incubated at 37° C. overnight. The plate was then taken, and 20 μL of the prepared diluted samples was added to the wells. The cells were treated at 37° C. for 72 hours. After 72 hours, the plate was taken, and a neutral formaldehyde fixation solution (formaldehyde:PBS=1:9) was added at 50 μL/well. The cells were fixed at room temperature for 10-30 minutes. The wells were washed twice with 1× PBS (100 μL/well), and then permeabilized with 0.2% Triton™-X100 for 5-10 minutes (100 μL/well). […] The plate was scanned by using an In Cell Analyzer, and the number of cells in each well was analyzed. The inhibition rate of each compound at various concentration points was calculated by using the formula provided. The IC50 values were determined by curve fitting using GraphPad Prism 6.0 software.

NCI-H1792 = experiment: Proliferation inhibition, non-small cell lung cancer cell line NCI-H1792; type: cell-based; details: Homo sapiens, NCI-H1792, 72 h
Procedure: as §1, §2, §3

[1] = 10 mg/kg oral gavage once daily
[2] = 25 mg/kg oral gavage once daily
[3] = 50 mg/kg oral gavage once daily

## CC1=Nc2c(F)cc(-c3nc(Nc4ccc(C5CCN(C)CC5)cn4)ncc3F)cc2C12CCCC2.O=C(O)/C=C/C(=O)O [Compound A, Fumarate salt of 5-fluoro-4-(7′-fluoro-2′-methylspiro[cyclopentane-1,3′-indol]-5′-yl)-N-(5-(1-methylpiperidin-4-yl)pyridin-2-yl)pyrimidine-2-amine]
NCI-H1581
  IC50: 1120 nM
NCI-H1975 xenograft; 5 mg/kg oral gavage once daily
  T/C: 85%
  TGI: 15%
  Tumor relative volume (x ± S): 9.8 ± 0.6
  Tumor volume (x ± S): 1889 mm^3 and 1889 ± 60 mm^3
NCI-H1975 xenograft; [1]
  T/C: 72%
  TGI: 28%
  Tumor relative volume (x ± S): 8.4 ± 1.0
  Tumor volume (x ± S): 1647 mm^3 and 1647 ± 243 mm^3
NCI-H1975 xenograft; [2]
  T/C: 50%
  TGI: 50%
  Tumor relative volume (x ± S): 5.8 ± 0.3
  Tumor volume (x ± S): 1141 mm^3 and 1141 ± 112 mm^3
  Body weight change: slight decrease in body weight
NCI-H1975 xenograft; [3]
  T/C: 31%
  TGI: 69%
  Tumor relative volume (x ± S): 3.6 ± 0.2
  Tumor volume (x ± S): 709 mm^3 and 709 ± 47 mm^3
  Body weight change: slight decrease in body weight
A549
  IC50: 66 nM
NCI-H1838
  IC50: 47.9 nM
NCI-H292
  IC50: 73 nM
SNU-761
  IC50: 8 nM
NCI-H1915
  IC50: 53 nM
U118MG cells
  IC50: 23.2 ± 5.2 nM
NCI-H1792
  IC50: 3 nM
